# Test results: patent US5166135A, “Method for the control of pneumocystis carinii” (Merck & Company, Inc., priority 1991, dated 1992)
# Values joined by “and” are separate entries in the source; they are usually repeats but may differ in a detail not shown here. Equal values may be shown once. Numbered stars: 1 amine (or outer) side, 2 acyl side, 3 side chain; on linkers, the order of the positions; unused ones are H or OH. Bridge positions count the residues as written; N and C are the ends. Square brackets hold non-standard residues; d marks the D form. Peptide text beside a SMILES is read from it. * marks the point of attachment. ξ: configuration not given here. Orn(4R-OH,5R-OH) = O=C([C@H](C[C@@H](O)[C@@H](O)N[*:3])N[*:1])[*:2]; ξOrn(4R-OH,5R-OH) = O=C(C(C[C@@H](O)[C@@H](O)N[*:3])N[*:1])[*:2]; Tetradecanoyl(10R,12S-Me2) = CC[C@H](C)C[C@H](C)CCCCCCCCC(=O)*; hTyr(3S-OH,4S-OH) = N[C@H](C(=O)O)[C@H](O)[C@@H](O)c1ccc(O)cc1; ξhTyr(3S-OH,4S-OH) = NC(C(=O)O)[C@H](O)[C@@H](O)c1ccc(O)cc1; ξOrn(4,5-diOH) = O=C(C(CC(O)C(O)N[*:3])N[*:1])[*:2]; ξhTyr(βξ-OH,γξ-OH) = NC(C(=O)O)C(O)C(O)c1ccc(O)cc1; Pro(3S-OH,4S-Me) = C[C@H]1CN[C@H](C(=O)O)[C@H]1O; Benzoyl(4-octyloxy) = CCCCCCCCOc1ccc(C(=O)*)cc1; Gln(3R-OH) = NC(=O)C[C@@H](O)[C@H](N)C(=O)O; Linoleoyl = CCCCC/C=C\C/C=C\CCCCCCCC(=O)*; X1 = C[C@H]1CN([*:1])C(C(=O)[*:2])[C@H]1O; ξPro(3ξ-OH,4ξ-Me) = CC1CNC(C(=O)O)C1O; ξPro(4R-OH) = O=C(O)C1C[C@@H](O)CN1; Stearoyl = CCCCCCCCCCCCCCCCCC(=O)*; Hyp = O=C(O)[CH]1C[CH](O)CN1; ξT = CC(O)C(N)C(=O)O
# Columns and labels:
# Pneumocystis carinii [1] = experiment: Similar rat study, 7 days treatment, antipneumocystis activity of Compound IBii and Compound IA; type: in vivo; conditions: rats, 2 mg/kg injected twice daily for 7 days; vehicle 10% DMSO
# Procedure: A similar rat study was conducted to determine the antipneumocystis activity of 1-[(4R,5R)-4,5-dihydroxy-N^2 -[4-(octyloxy)benzoyl]-L-iiornithine]echinocandin B (Compound IBii). After 6 weeks of immunosuppression the rats were injected twice daily for 7 days with vehicle alone, Compound IBii (2 mg/kg) or Compound IA (2 mg/kg) during which time immunosuppression was continued. At the end of the treatment period the animals were sacrificed and the number of cysts per lung determined. Compound IA reduced the number of cysts by >99% while Compound IBii reduced the cyst counts by approximately 84% (compared to the vehicle control, 10% DMSO).
# P. carinii [2] = experiment: Prophylaxis study in immunosuppressed rats with latent P. carinii infections (Table IV); type: in vivo
# Procedure: In a study to test the effectiveness of these compounds as a potential prophylactic agent, rats with latent P. carinii infections were immunosuppressed with dexamethasone in drinking water to stimulate the development of acute PCP. During this immunosuppression period the animals were given daily subcutaneous injections of either 1 mg/kg of Compound IA or vehicle. After six weeks all animals were sacrificed. The number of cysts per lung was determined microscopically and the nuclei (trophozites)were quantitated using a specific DNA probe. From the following table (Table IV) it can be seen that the development of both cysts and trophozoite forms of P. carinii is prevented by daily treatments of Compound IA.
# P. carinii [3] = experiment: In vivo testing of Compound IA and TMP-SMZ against P. carinii in immunosuppressed rats (Table I); design: species or system Sprague-Dawley rats
# Procedure: In a representative study employing Compound IA in rats, nine male Sprague-Dawley rats from a colony known to have latent P. carinii infections, weighting approximately 200 grams each, were immunosupressed by the addition of dexamethasone to the drinking water (2.0 mg/liter) for six weeks to induce the development of P. carinii infections. To enhance the infection the rats were also maintained on a low protein diet. At the beginning of the seventh week the rats were divided into three groups of three rats each. All three groups continued to receive dexamethasone in the drinking water and low protein diet throughout the remainder of the study. The rats in Group I were kept as untreated infected controls, those in Group II were injected intraperitoneally twice daily for two weeks with 0.5 ml of sterile dH2 O containing 2 mg of Compound IA, and those in Group III were treated with trimethoprim-sulfamethoxazole (TMP-SMZ) in the drinking water (208 mg TMP and 1.040 g of SMZ/liter) for two weeks, a known treatment for P. carinii infections. Two rats died early in the experiment. One was from group II (rat 72A) and the other from group III (rat 75A). It was not determined whether they died from Pneumocystis pneumonia. At the end of the two week treatment period (a total of eight weeks of immunosuppression) the animals were sacrificed and the lung tissue removed. The lungs from each animal were weighed, and then processed to determine the number of cysts and parasite nuclei for each animal.
# [4] = system: Pneumocystis carinii cysts; experiment: 4-day treatment experiments, minimum effective dose for 90 percent clearance of cysts (Table III); type: in vivo; conditions: minimum effective dose for 90 percent clearance of cysts, six animals per dose level
# Procedure: When 4-day treatment experiments were carried out in a similar manner, but using different doses in order to determine the minimum effective dose for 90 percent clearance of Pneumocystis carinii cysts, the results shown on Table III were obtained (Six animals were used at each dose level.)
# P. carinii [5] = experiment: Immunosuppressed mice study, reduction of cysts (Table II); type: in vivo, C3 H/HeN mice; conditions: 2 mg/kg intraperitoneally twice daily for one week
# Description: Male C3 H/HeN mice, weighing 22-24 grams each, were immunosuppressed by the addition of dexamethasone to the drinking water for six weeks to induce the development of P. carinii infections. To enhance the infections the mice were also maintained on a low protein diet. At the beginning of the seventh week, the mice were randomly divided into groups of 6. All groups continued to receive dexamethasone in the drinking water and low protein diet for the remainder of the study. Mice in each group were injected intraperitonially twice daily with 0.5 ml of a 10% DMSO solution as a vehicle control or the same cocktail containing drug to achieve a dose of 2 mg/kg. This procedure was continued for one week.
# At the end of the treatment period (a total of seven weeks of immunosuppression) the animals were sacrificed and the lung tissue removed. The tissue was then processed to determine the number of cysts for each animal.
# Solubility properties = type: physicochemical; conditions: methanol, ethanol, dimethylformamide, dimethyl sulfoxide, and the like
# P. carinii [6] = experiment: Repeat rat experiment with larger number of rats, cysts per lung; type: in vivo; conditions: five rats Compound IA, six rats TMP-SMZ; DMSO control 5.8×10^5 to 3.1×10^7; limit of resolution 2.8×10^3
# P. carinii [7] = experiment: Long term (21 days) therapy study, rate of cyst clearance; type: in vivo
# Procedure: Pentamadine was administered intravenously daily at a dose of 10 mg/kg, 2.5 times the recommended dose for man. Compound IA was given twice daily intraperitonealy at 1.0 mg/kg.
# Pneumocystis carinii [8] = experiment: Rat study of the 2-aminoethyl ether of tetrahydroechinocandin B, four days subcutaneous, four dose levels; type: in vivo, Sprague-Dawley rats; conditions: rats
# Procedure: In still another study, the antipneumocystis activity of a compound in wherein R^I is OH, R^II is OH, R^III is --CH2 CH2 NH2, R^I is OH, R^V is CH3, R^V is CH3, R is [drawing 21] preparation and structure in Example G) was determined. In this study, Sprague-Dawley rats (weighing approximately 250 g) were immunosuppressed with dexasone in the drinking water (2.0 mg/L) and maintained on a regular protein diet for 7 weeks to induce the development of pneumocystis pneumonia from a latent infection. Before drug treatment 2 rats were sacrificed to confirm the presence of Pneumocystis carinii pneumonia (PCP), both rats had infections. The remaining rats (weighing approximately 150 g) were distributed into groups of 6 and injected twice daily for four days subcutaneously with compound in 0.25 ml of vehicle (10% DMSO). The control groups received vehicle alone. All animals continued to receive dexasone in the drinking water and regular diet during the drug treatment period. At the completion of treatment all animals were sacrificed, the lungs were removed and processed, and the extent of disease determined by microscopic analysis of stained slides.
# Four dose levels of this compound were tested.
# [9] = 1 mg/kg s.c. daily for six weeks, P ≤ 0.002
# [10] = individual rats, after two weeks treatment
# [11] = individual rats, after two weeks: Compound IA 2 mg i.p. twice daily, or TMP-SMZ in drinking water
compound,measurement,setting,value
"CC[C@H](C)C[C@H](C)CCCCCCCCC(=O)N[C@H]1C[C@@H](O)[C@@H](O)NC(=O)[C@@H]2[C@@H](O)[C@@H](C)CN2C(=O)[C@H]([C@H](O)CC(N)=O)NC(=O)[C@H]([C@H](O)[C@@H](O)c2ccc(O)cc2)NC(=O)[C@@H]2C[C@@H](O)CN2C(=O)[C@H]([C@@H](C)O)NC1=O [Compound IA] ({Tetradecanoyl(10R,12S-Me2)}-[Orn(4R-OH,5R-OH)]T[Hyp][hTyr(3S-OH,4S-OH)][Gln(3R-OH)][Pro(3S-OH,4S-Me)]; lactam 1-C)",reduction of number of cysts per lung compared to vehicle control,Pneumocystis carinii [1],> 99%
same,Cysts Log Mean,"P. carinii [2]; 1 mg/kg s.c. daily for six weeks during immunosuppression, detection limit 4.66, control 7.76 ± 0.10",4.70 ± 0.04
same,Nuclei Log Mean,"P. carinii [2]; 1 mg/kg s.c. daily for six weeks, DNA probe, detection limit 4.66, control 7.50 ± 0.15",4.85 ± 0.05
same,Cysts Reduction,P. carinii [2]; [9],> 99.9%
same,Nuclei Reduction,P. carinii [2]; [9],99.8%
same,Mean Lung Wt.,"P. carinii [2]; 1 mg/kg s.c. daily for six weeks, P ≤ 0.002 vs control",1.81 ± .10 gms
same,Mean Body Wt.,"P. carinii [2]; 1 mg/kg s.c. daily for six weeks, control 147.1 ± 6.3",142.0 ± 4.2 gms
same,CYST SCORE,P. carinii [3]; [10],0
same,LUNG WT.,P. carinii [3]; [10],2.83 gms and 1.40 gms
same,TOTAL NUCLEI per gm lung,P. carinii [3]; [11],7.4 × 10^8 and 7.1 × 10^8
same,TOTAL NUCLEI per lung,P. carinii [3]; [11],2.1 × 10^9 and 1.0 × 10^9
same,cysts in the lungs of treated rats,"P. carinii [3]; two weeks treatment, controls 3.2×10^8 -1.5×10^9",No cysts could be found
same,number of parasite nuclei (range over treated rats),"P. carinii [3]; two weeks treatment, controls 5.8×10^9 -1.4×10^10",1.0-2.1×10^9
same,ED90,[4],0.2 mg/kg
same,% Reduction of Cysts,P. carinii [5],> 99%
same,solubility in organic solvents,Solubility properties,soluble
same,number of cysts per lung (range over rats),P. carinii [6],3.2×10^3 to 2.6×10^4
same,extent of cyst clearance (reduction),"P. carinii [7]; Compound IA 1.0 mg/kg i.p. twice daily, compared with known agents at the two week time point",greater than 99%
same,time to elimination of cysts,P. carinii [7]; Compound IA 1.0 mg/kg intraperitoneally twice daily,≤ 4 days
"CCCCCCCCOc1ccc(C(=O)NC2C[C@@H](O)[C@@H](O)NC(=O)C3[C@@H](O)[C@@H](C)CN3C(=O)C(C(C)O)NC(=O)C([C@H](O)[C@@H](O)c3ccc(O)cc3)NC(=O)C3C[C@@H](O)CN3C(=O)C(C(C)O)NC2=O)cc1 (stereo partly drawn) [Compound IBii, 1-[(4R,5R)-4,5-dihydroxy-N^2-[4-(octyloxy)benzoyl]-L-ornithine]echinocandin B] ({Benzoyl(4-octyloxy)}-[ξOrn(4R-OH,5R-OH)][ξT][ξPro(4R-OH)][ξhTyr(3S-OH,4S-OH)][ξT][X1]; lactam 1-C)",reduction of number of cysts per lung compared to vehicle control,Pneumocystis carinii [1],approximately 84%
same,ED90,[4],4.0 mg/kg
"CCCCC/C=C\C/C=C\CCCCCCCC(=O)N[C@H]1C[C@@H](O)[C@@H](O)NC(=O)[C@@H]2[C@@H](O)[C@@H](C)CN2C(=O)[C@H]([C@@H](C)O)NC(=O)[C@H]([C@H](O)[C@@H](O)c2ccc(O)cc2)NC(=O)[C@@H]2C[C@@H](O)CN2C(=O)[C@H]([C@@H](C)O)NC1=O [Echinocandin B] (Linoleoyl-[Orn(4R-OH,5R-OH)]T[Hyp][hTyr(3S-OH,4S-OH)]T[Pro(3S-OH,4S-Me)]; lactam 1-C)",ED90,[4],1.2 mg/kg
same,% Reduction of Cysts,P. carinii [5],> 99%
"CCCCCCCCCCCCCCCCCC(=O)NC1CC(O)C(O)NC(=O)C2C(O)C(C)CN2C(=O)C(C(C)O)NC(=O)C(C(O)C(O)c2ccc(O)cc2)NC(=O)C2CC(O)CN2C(=O)C(C(C)O)NC1=O (stereo not drawn) [Tetrahydroechinocandin B (TEB), tetrahydroechinocandin B] (Stearoyl-[ξOrn(4,5-diOH)]T[Hyp][ξhTyr(βξ-OH,γξ-OH)]T[ξPro(3ξ-OH,4ξ-Me)]; lactam 1-C; configuration not given here)",ED90,[4],0.2 mg/kg
same,% Reduction of Cysts,P. carinii [5],99%
O-benzyltetrahydroechinocandin B [O-Benzyl-TEB],% Reduction of Cysts,P. carinii [5],99%
O-methyltetrahydroechinocandin B [O-Methyl-TEB],% Reduction of Cysts,P. carinii [5],> 99%
"Tetrahydroechinocandin-B, 2-aminoethyl Ether, Trifluoroacetate Salt [Example G]",ED90,[4],< 0.02 mg/kg
same,reduction of cysts,Pneumocystis carinii [8]; 18.25 μg/kg s.c. twice daily for four days,96%
same,reduction of cysts,Pneumocystis carinii [8]; 37.5 μg/kg s.c. twice daily for four days,98%
same,reduction of cysts,Pneumocystis carinii [8]; 75 μg/kg s.c. twice daily for four days,99%
same,reduction of cysts,Pneumocystis carinii [8]; 150 μg/kg s.c. twice daily for four days,99%
same,ED90,"Pneumocystis carinii [8]; s.c. twice daily for four days, cyst reduction",below 18.25 μg/kg
